Test results from ChEMBL document CHEMBL5108027, “An unanticipated discovery of novel naphthalimidopropanediols as potential broad-spectrum antibacterial members” (Eur J Med Chem, 2022).
Values after ≈ are worked out from the molar mass of the structure shown. Active and inactive are the calls of the source. The rule behind the calls is not given here.

Key:
[1] = system: Staphylococcus aureus; assay: Antibacterial activity against methicillin-resistant Staphylococcus aureus N315 measured by Muller-Hinton broth based microdilution assay; assay type: functional
[2] = system: Enterococcus faecalis; assay: Antibacterial activity against Enterococcus faecalis measured by Muller-Hinton broth based microdilution assay; assay type: functional
[3] = system: Staphylococcus aureus; assay: Antibacterial activity against Staphylococcus aureus measured by Muller-Hinton broth based microdilution assay; assay type: functional
[4] = system: Staphylococcus aureus; assay: Antibacterial activity against Staphylococcus aureus ATCC 25923 measured by Muller-Hinton broth based microdilution assay; assay type: functional
[5] = system: Staphylococcus aureus; assay: Antibacterial activity against Staphylococcus aureus ATCC 29213 measured by Muller-Hinton broth based microdilution assay; assay type: functional
[6] = system: Klebsiella pneumoniae; assay: Antibacterial activity against Klebsiella pneumoniae measured by Muller-Hinton broth based microdilution assay; assay type: functional
[7] = system: Escherichia coli; assay: Antibacterial activity against Escherichia coli measured by Muller-Hinton broth based microdilution assay; assay type: functional
[8] = system: Pseudomonas aeruginosa; assay: Antibacterial activity against Pseudomonas aeruginosa measured by Muller-Hinton broth based microdilution assay; assay type: functional
[9] = system: Acinetobacter baumannii; assay: Antibacterial activity against Acinetobacter baumannii measured by Muller-Hinton broth based microdilution assay; assay type: functional
[10] = system: Pseudomonas aeruginosa; assay: Antibacterial activity against Pseudomonas aeruginosa ATCC 27853 measured by Muller-Hinton broth based microdilution assay; assay type: functional
[11] = system: Escherichia coli; assay: Antibacterial activity against Escherichia coli ATCC 25922 measured by Muller-Hinton broth based microdilution assay; assay type: functional
[12] = Hemolytic activity in human RBC measured after 1 hr; assay type: toxicity, cell-based, Erythrocyte; details: human red blood cells (erythrocytes)
[13] = Selectivity ratio of HC50 for hemolytic activity in human RBC to MIC for antibacterial activity against Pseudomonas aeruginosa; assay type: toxicity; details: human red blood cells (erythrocytes)
[14] = Hemolytic activity in human RBC assessed as hemolytic rate at 2 to 512 ug/ml and measured after 1 hr; assay type: toxicity, cell-based, Erythrocyte; details: human red blood cells (erythrocytes), at 2 to 512 µg/mL, dose 2-512 µg/ml, read-out: Activity
[15] = system: Pseudomonas aeruginosa; assay: Antibacterial activity against Pseudomonas aeruginosa measured after 16 passages by resistance development assay; assay type: functional, organism-based
[16] = system: Pseudomonas aeruginosa; assay: Inhibition of bacterial growth of Pseudomonas aeruginosa at 1 to 2 times MIC; assay type: functional
[17] = system: Pseudomonas aeruginosa; assay: Bactericidal activity against Pseudomonas aeruginosa assessed as reduction in number of colonies at 0.5 to 2 times MIC measured within 6 hrs by time-kill assay; assay type: functional, organism-based
[18] = system: Pseudomonas aeruginosa; assay: Induction of membrane depolarization in Pseudomonas aeruginosa at 0.5 to 2 times MIC measured upto 1 hr by DiSC35 dye-based fluorescence assay; assay type: functional, organism-based
[19] = system: Pseudomonas aeruginosa; assay: Induction of outer membrane permeabilization in Pseudomonas aeruginosa preincubated for 30 mins at 1 to 8 times MIC measured by NPN fluorescent dye based assay; assay type: functional, organism-based
[20] = system: Pseudomonas aeruginosa; assay: Induction of inner membrane permeabilization in Pseudomonas aeruginosa by measuring increase in fluorescence intensity at 1 to 8 times MIC by calcein-AM/PI staining based fluorescence analysis; assay type: functional, organism-based
[21] = system: Pseudomonas aeruginosa; assay: Disruption of membrane integrity in Pseudomonas aeruginosa at 8 times MIC by calcein-AM/PI staining based fluorescence analysis; assay type: functional, organism-based
[22] = system: Pseudomonas aeruginosa; assay: Disruption of membrane integrity in Pseudomonas aeruginosa assessed as increase in nucleic acid leakage by measuring increase in absorbance 1 to 8 times MIC measured for 6 hrs by spectrophotometry; assay type: functional, organism-based
[23] = system: Pseudomonas aeruginosa; assay: Disruption of membrane integrity in Pseudomonas aeruginosa assessed as increase in protein leakage by measuring increase in absorbance 1 to 8 times MIC measured for 6 hrs by Bradford assay; assay type: functional, organism-based
[24] = system: Pseudomonas aeruginosa; assay: Antibacterial activity against Pseudomonas aeruginosa assessed as reduction in LDH activity at 1 to 8 times MIC measured after 6 hrs by microplate reader method; assay type: functional; set-up: scale not given: the % may be the effect or the level left
[25] = system: Pseudomonas aeruginosa; assay: Induction of oxidative stress in Pseudomonas aeruginosa assessed as increase in intracellular ROS level at 1 to 8 times MIC measured after 6 hrs by DCFH-DA staining method; assay type: functional, organism-based
[26] = system: Pseudomonas aeruginosa; assay: Induction of oxidative stress in Pseudomonas aeruginosa assessed as decrease in GSH activity at 1 to 8 times MIC measured after 6 hrs by Ellman's assay; assay type: functional, organism-based
[27] = system: Pseudomonas aeruginosa; assay: Antibacterial activity against Pseudomonas aeruginosa assessed as reduction in metabolic activity at 1 to 8 times MIC measured after 6 hrs by Alamar blue assay; assay type: functional, organism-based
[28] = system: Pseudomonas aeruginosa; assay: Inhibition of biofilm formation in Pseudomonas aeruginosa at 1 to 8 times MIC measured after 24 hrs by crystal violet staining method; assay type: functional, organism-based
[29] = system: Pseudomonas aeruginosa; assay: Antibiofilm activity in Pseudomonas aeruginosa at 1 to 8 times MIC measured by Alamar blue assay; assay type: functional, organism-based
[30] = system: L929; assay: Cytotoxicity against mouse L929 cells assessed as effect on cell growth at 0.25 to 0.5 ug/ml incubated for 24 hrs by MTT assay; assay type: toxicity, cell-based; details: l929, 24 h, dose 0.25-0.5 µg/ml
[31] = Selectivity ratio of HC50 for hemolytic activity in human RBC to MIC for antibacterial activity against Staphylococcus aureus; assay type: toxicity; details: human red blood cells (erythrocytes)
[32] = system: Staphylococcus aureus; assay: Antibacterial activity against Staphylococcus aureus measured after 16 passages by resistance development assay; assay type: functional, organism-based
[33] = system: Staphylococcus aureus; assay: Inhibition of bacterial growth of Staphylococcus aureus at 1 to 2 times MIC; assay type: functional
[34] = system: Staphylococcus aureus; assay: Bactericidal activity against Staphylococcus aureus assessed as reduction in number of colonies at 0.5 to 2 times MIC measured within 6 hrs by time-kill assay; assay type: functional, organism-based
[35] = system: Staphylococcus aureus; assay: Induction of membrane depolarization in Staphylococcus aureus at 0.5 to 2 times MIC measured upto 1 hr by DiSC35 dye-based fluorescence assay; assay type: functional, organism-based
[36] = system: Staphylococcus aureus; assay: Induction of inner membrane permeabilization in Staphylococcus aureus by measuring increase in fluorescence intensity at 1 to 8 times MIC by calcein-AM/PI staining based fluorescence analysis; assay type: functional, organism-based
[37] = system: Staphylococcus aureus; assay: Disruption of membrane integrity in Staphylococcus aureus at 8 times MIC by calcein-AM/PI staining based fluorescence analysis; assay type: functional, organism-based
[38] = system: Staphylococcus aureus; assay: Disruption of membrane integrity in Staphylococcus aureus assessed as increase in nucleic acid leakage by measuring increase in absorbance 1 to 8 times MIC measured for 6 hrs by spectrophotometry; assay type: functional, organism-based
[39] = system: Staphylococcus aureus; assay: Disruption of membrane integrity in Staphylococcus aureus assessed as increase in protein leakage by measuring increase in absorbance 1 to 8 times MIC measured for 6 hrs by Bradford assay; assay type: functional, organism-based
[40] = system: Staphylococcus aureus; assay: Antibacterial activity against Staphylococcus aureus assessed as reduction in LDH activity at 1 to 8 times MIC measured after 6 hrs by microplate reader method; assay type: functional; set-up: scale not given: the % may be the effect or the level left
[41] = system: Staphylococcus aureus; assay: Induction of oxidative stress in Staphylococcus aureus assessed as increase in intracellular ROS level at 1 to 8 times MIC measured after 6 hrs by DCFH-DA staining method; assay type: functional, organism-based
[42] = system: Staphylococcus aureus; assay: Induction of oxidative stress in Staphylococcus aureus assessed as decrease in GSH activity at 1 to 8 times MIC measured after 6 hrs by Ellman's assay; assay type: functional, organism-based
[43] = system: Staphylococcus aureus; assay: Antibacterial activity against Staphylococcus aureus assessed as reduction in metabolic activity at 1 to 8 times MIC measured after 6 hrs by Alamar blue assay; assay type: functional, organism-based
[44] = system: Staphylococcus aureus; assay: Inhibition of biofilm formation in Staphylococcus aureus at 1 to 8 times MIC measured after 24 hrs by crystal violet staining method; assay type: functional, organism-based
[45] = system: Staphylococcus aureus; assay: Antibiofilm activity in Staphylococcus aureus at 1 to 8 times MIC measured by Alamar blue assay; assay type: functional, organism-based
[46] = system: Staphylococcus aureus; assay: Antibacterial activity against Staphylococcus aureus assessed as fold increase in MIC measured after 16 passages by resistance development assay; assay type: functional
[47] = system: Pseudomonas aeruginosa; assay: Antibacterial activity against Pseudomonas aeruginosa assessed as fold increase in MIC measured after 16 passages by resistance development assay; assay type: functional

SMILES	MIC [1]	MIC [2]	MIC [3]	MIC [4]	MIC [5]	MIC [6]	MIC [7]	MIC [8]	MIC [9]	MIC [10]	MIC [11]	HC50 at 1 h [12]	selectivity ratio [13]	hemolysis at 1 h [14]	Activity [15]	inhibition [16]	Activity [17]	Activity [18]	Activity [19]	Activity [30]	also measured
O=C1c2cccc3c(N/N=C/c4ccc5ccccc5c4)ccc(c23)C(=O)N1C(CO)CO	64 µg/mL (≈ 146 µM)	64 µg/mL (≈ 146 µM)	4 µg/mL (≈ 9.1 µM)	64 µg/mL (≈ 146 µM)	128 µg/mL (≈ 291 µM)	32 µg/mL (≈ 72.8 µM)	16 µg/mL (≈ 36.4 µM)	0.5 µg/mL (≈ 1.14 µM)	64 µg/mL (≈ 146 µM)	1 µg/mL (≈ 2.28 µM)	32 µg/mL (≈ 72.8 µM)	> 1000 µg/mL	> 2000	< 5%	Active	Active	Active	Active	Active	Non-Toxic	Activity [20]: Active; Activity [21]: Active; Activity [22]: Active; Activity [23]: Active; Activity [24]: 70%; Activity [25]: Active; Activity [26]: Active; Activity [27]: Active; inhibition [28]: Active; Activity [29]: Active
CCOC(=O)Cn1cc(/C=N/Nc2ccc3c4c(cccc24)C(=O)N(C(CO)CO)C3=O)c2ccccc21	16 µg/mL (≈ 31.1 µM)	64 µg/mL (≈ 124 µM)	0.25 µg/mL (≈ 0.486 µM)	32 µg/mL (≈ 62.2 µM)	8 µg/mL (≈ 15.5 µM)	4 µg/mL (≈ 7.77 µM)	64 µg/mL (≈ 124 µM)	64 µg/mL (≈ 124 µM)	32 µg/mL (≈ 62.2 µM)	8 µg/mL (≈ 15.5 µM)	32 µg/mL (≈ 62.2 µM)	> 1000 µg/mL		< 5%						Non-Toxic	selectivity ratio [31]: > 4000; Activity [32]: Active; inhibition [33]: Active; Activity [34]: Active; Activity [35]: Active; Activity [36]: Active; Activity [37]: Active; Activity [38]: Active; Activity [39]: Active; Activity [40]: 70%; Activity [41]: Active; Activity [42]: Active; Activity [43]: Active; inhibition [44]: Active; Activity [45]: Active
COc1ccc(/C=N/Nc2ccc3c4c(cccc24)C(=O)N(C(CO)CO)C3=O)cc1	64 µg/mL (≈ 153 µM)	64 µg/mL (≈ 153 µM)	32 µg/mL (≈ 76.3 µM)	64 µg/mL (≈ 153 µM)	128 µg/mL (≈ 305 µM)	32 µg/mL (≈ 76.3 µM)	16 µg/mL (≈ 38.1 µM)	0.5 µg/mL (≈ 1.19 µM)	64 µg/mL (≈ 153 µM)	2 µg/mL (≈ 4.77 µM)	64 µg/mL (≈ 153 µM)	> 1000 µg/mL	> 2000	< 5%	Active	Active	Active	Active	Active	Non-Toxic	Activity [20]: Active; Activity [21]: Active; Activity [22]: Active; Activity [23]: Active; Activity [24]: 70%; Activity [25]: Active; Activity [26]: Active; Activity [27]: Active; inhibition [28]: Active; Activity [29]: Active
CCn1cc(C(=O)O)c(=O)c2cc(F)c(N3CCNCC3)cc21 [NORFLOXACIN]	16 µg/mL (≈ 50.1 µM)	8 µg/mL (≈ 25.1 µM)	8 µg/mL (≈ 25.1 µM)	16 µg/mL (≈ 50.1 µM)	16 µg/mL (≈ 50.1 µM)	4 µg/mL (≈ 12.5 µM)	2 µg/mL (≈ 6.26 µM)	4 µg/mL (≈ 12.5 µM)	1 µg/mL (≈ 3.13 µM)	2 µg/mL (≈ 6.26 µM)	4 µg/mL (≈ 12.5 µM)										fold change (FC) [46]: 64; fold change (FC) [47]: 128
O=C1c2cccc3c(N/N=C/c4cccc(Cl)c4)ccc(c23)C(=O)N1C(CO)CO	64 µg/mL (≈ 151 µM)	64 µg/mL (≈ 151 µM)	0.25 µg/mL (≈ 0.59 µM)	32 µg/mL (≈ 75.5 µM)	8 µg/mL (≈ 18.9 µM)	8 µg/mL (≈ 18.9 µM)	64 µg/mL (≈ 151 µM)	64 µg/mL (≈ 151 µM)	64 µg/mL (≈ 151 µM)	2 µg/mL (≈ 4.72 µM)	32 µg/mL (≈ 75.5 µM)	> 1000 µg/mL		< 5%						Non-Toxic	selectivity ratio [31]: > 4000; Activity [32]: Active; inhibition [33]: Active; Activity [34]: Active; Activity [35]: Active; Activity [36]: Active; Activity [37]: Active; Activity [38]: Active; Activity [39]: Active; Activity [40]: 70%; Activity [41]: Active; Activity [42]: Active; Activity [43]: Active; inhibition [44]: Active; Activity [45]: Active
